Data set [1] has as its target T1, Melanocyte-stimulating hormone receptor (Homo sapiens, UniProt Q01726). Description: Agonist activity at human recombinant MC1 receptor expressed in HEK293 cells assessed as cAMP accumulation by enzyme fragment complementation assay relative to alpha melanocyte-stimulating hormone. Format: functional, cell-based.
Target sequence in this assay (Q01726 whole entry, looked up, the tested form may be a part): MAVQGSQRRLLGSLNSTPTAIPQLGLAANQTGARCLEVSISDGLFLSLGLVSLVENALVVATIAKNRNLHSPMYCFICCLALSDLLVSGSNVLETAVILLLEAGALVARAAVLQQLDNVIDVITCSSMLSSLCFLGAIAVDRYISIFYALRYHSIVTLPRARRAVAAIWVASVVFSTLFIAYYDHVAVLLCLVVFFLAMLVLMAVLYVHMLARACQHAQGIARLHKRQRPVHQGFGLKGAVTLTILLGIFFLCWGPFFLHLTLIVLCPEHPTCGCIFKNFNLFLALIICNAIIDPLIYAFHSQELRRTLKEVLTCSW
The nature of data set [2]: Lipophilicity, log D at pH 7.4. Type of data set: physicochemical. The note with it: buffer.
Data set [3] has as its target T1, Melanocyte-stimulating hormone receptor. Description: Agonist activity at human recombinant MC1 receptor expressed in HEK293 cells assessed as cAMP accumulation by enzyme fragment complementation assay. Type of data set: functional, cell-based.
Target sequence in this assay (Q01726 whole entry, the tested form may be a part): as the sequence (Q01726 whole entry, looked up, the tested form may be a part) above
Data set [4] addresses T2, Melanocortin receptor 4 (Homo sapiens, UniProt P32245). Description: Displacement of [125I]-MT-II from human recombinant MC4 receptor expressed in CHO cells by scintillation counting.
Data set [5] has as its target T3, Melanocortin receptor 3 (Homo sapiens, UniProt P41968). Description: Agonist activity at human recombinant MC3 receptor expressed in CHO cells assessed as cAMP accumulation by enzyme fragment complementation assay. Type of data set: functional, cell-based.
In data set [6] the target is T3, Melanocortin receptor 3. The data set can be described thus: Agonist activity at human recombinant MC3 receptor expressed in CHO cells assessed as cAMP accumulation by enzyme fragment complementation assay relative to […]. Type of data set: functional, cell-based.
Data set [7] concerns the target T2, Melanocortin receptor 4. The data set can be described thus: Agonist activity at human recombinant MC4 receptor expressed in CHO cells by cAMP responsive beta lactamase reporter gene assay. Type of data set: functional, cell-based.
Data set [8] is described as follows: Intrinsic clearance in human liver microsome measured per mg of protein. Format: ADME. The conditions noted are these: liver microsomes.
The target in data set [9] is Voltage-gated inwardly rectifying potassium channel KCNH2 (Homo sapiens, UniProt Q12809). Description: Displacement of [3H]dofetilide from human ERG expressed in CHO cells by patch clamp method.
Data set [10] concerns the target T4, Melanocortin receptor 5 (Homo sapiens, UniProt P33032). Description: Agonist activity at human recombinant MC5 receptor expressed in HEK293 cells assessed as cAMP accumulation by beta lactamase reporter gene assay. Format: functional, cell-based.
Data set [11] concerns the target T4, Melanocortin receptor 5. The data set can be described thus: Agonist activity at human recombinant MC5 receptor expressed in HEK293 cells assessed as cAMP accumulation by beta lactamase reporter gene assay relative to alpha melanocyte-stimulating hormone. Format: functional, cell-based.

T4 sequence (P33032 whole entry): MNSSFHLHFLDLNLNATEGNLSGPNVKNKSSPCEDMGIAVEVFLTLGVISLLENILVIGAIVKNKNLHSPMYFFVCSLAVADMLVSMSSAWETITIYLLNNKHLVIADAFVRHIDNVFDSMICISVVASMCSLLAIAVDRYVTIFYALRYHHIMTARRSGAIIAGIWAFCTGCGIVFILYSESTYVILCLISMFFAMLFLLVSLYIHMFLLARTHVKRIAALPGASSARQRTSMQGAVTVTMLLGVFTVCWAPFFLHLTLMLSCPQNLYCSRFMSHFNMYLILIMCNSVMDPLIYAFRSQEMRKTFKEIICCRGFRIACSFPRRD
T3 sequence (P41968 whole entry, the tested form may be a part): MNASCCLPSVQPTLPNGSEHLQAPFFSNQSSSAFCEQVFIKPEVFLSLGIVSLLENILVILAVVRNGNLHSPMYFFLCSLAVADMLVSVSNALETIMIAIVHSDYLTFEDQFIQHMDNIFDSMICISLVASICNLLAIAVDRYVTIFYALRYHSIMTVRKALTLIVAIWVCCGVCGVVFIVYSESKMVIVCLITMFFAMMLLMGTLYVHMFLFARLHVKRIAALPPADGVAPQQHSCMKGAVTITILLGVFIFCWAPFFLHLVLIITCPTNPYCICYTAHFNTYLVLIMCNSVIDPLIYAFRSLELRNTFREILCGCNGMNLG
T2 sequence (P32245 whole entry, the tested form may be a part): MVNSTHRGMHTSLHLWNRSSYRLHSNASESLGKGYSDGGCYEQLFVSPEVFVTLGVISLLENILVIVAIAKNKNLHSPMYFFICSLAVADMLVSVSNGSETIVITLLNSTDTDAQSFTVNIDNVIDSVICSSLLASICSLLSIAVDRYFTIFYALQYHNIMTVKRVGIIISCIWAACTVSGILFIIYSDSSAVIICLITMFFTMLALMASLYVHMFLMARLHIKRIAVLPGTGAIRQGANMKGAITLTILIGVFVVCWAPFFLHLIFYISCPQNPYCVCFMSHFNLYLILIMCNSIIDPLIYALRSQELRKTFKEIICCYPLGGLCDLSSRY
Chain of Voltage-gated inwardly rectifying potassium channel KCNH2 (Q12809 whole entry): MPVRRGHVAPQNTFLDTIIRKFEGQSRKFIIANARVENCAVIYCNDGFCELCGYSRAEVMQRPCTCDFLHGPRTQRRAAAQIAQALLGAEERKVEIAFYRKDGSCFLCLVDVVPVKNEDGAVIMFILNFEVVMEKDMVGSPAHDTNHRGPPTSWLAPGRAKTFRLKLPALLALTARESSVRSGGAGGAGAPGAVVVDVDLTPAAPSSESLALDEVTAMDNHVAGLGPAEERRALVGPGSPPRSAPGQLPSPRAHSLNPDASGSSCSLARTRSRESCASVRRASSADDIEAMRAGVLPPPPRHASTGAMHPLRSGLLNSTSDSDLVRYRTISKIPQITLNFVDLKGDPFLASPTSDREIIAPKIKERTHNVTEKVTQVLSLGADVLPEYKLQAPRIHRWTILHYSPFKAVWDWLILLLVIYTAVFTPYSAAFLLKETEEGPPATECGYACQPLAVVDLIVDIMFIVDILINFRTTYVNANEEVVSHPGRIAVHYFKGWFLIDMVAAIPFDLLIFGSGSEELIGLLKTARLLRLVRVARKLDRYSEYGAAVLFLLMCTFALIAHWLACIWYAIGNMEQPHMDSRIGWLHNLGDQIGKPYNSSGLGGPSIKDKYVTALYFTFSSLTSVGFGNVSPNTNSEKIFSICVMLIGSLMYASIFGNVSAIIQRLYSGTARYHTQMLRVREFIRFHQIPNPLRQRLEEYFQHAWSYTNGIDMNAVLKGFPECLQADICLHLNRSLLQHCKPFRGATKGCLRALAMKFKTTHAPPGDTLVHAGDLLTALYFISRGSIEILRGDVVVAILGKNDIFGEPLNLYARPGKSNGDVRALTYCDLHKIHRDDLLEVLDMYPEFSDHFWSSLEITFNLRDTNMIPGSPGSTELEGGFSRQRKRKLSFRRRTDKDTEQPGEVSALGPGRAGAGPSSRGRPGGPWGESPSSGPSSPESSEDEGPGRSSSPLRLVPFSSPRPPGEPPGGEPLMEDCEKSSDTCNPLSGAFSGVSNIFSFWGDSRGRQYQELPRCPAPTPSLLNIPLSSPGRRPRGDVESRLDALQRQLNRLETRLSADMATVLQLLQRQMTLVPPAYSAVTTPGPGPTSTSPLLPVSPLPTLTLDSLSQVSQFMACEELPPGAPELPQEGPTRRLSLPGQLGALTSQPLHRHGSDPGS

For the compound `C[C@@H]1CN(C(=O)[C@H]2CN(c3cccnn3)C[C@@H]2c2ccc(F)cc2F)C[C@H](C)[C@@]1(O)c1ccccn1`, the results for the Emax in data set [1] and in [6] were 67% and 75%, respectively. The compound also returned a logD in [2] of 3. The EC50 worked out at 1850 nM in data set [3], 3660 nM in [5] and 7 nM in data set [7]. The Ki in data set [4] was found to be 52 nM. Moreover, the microsomal CLint in data set [8] was over 440 µL/min/mg.

Take `C[C@@H]1CN(C(=O)[C@@H]2CN(C(C)(C)C)C[C@H]2c2ccc(F)cc2F)C[C@H](C)[C@@]1(O)c1c(F)cccc1F`: the EC50 in data set [3] is over 5010 nM; in data set [5] it was 4570 nM; in data set [10] it was over 5810 nM; in data set [7] it was 45 nM. Moreover, the inhibitory constant (Ki) in data set [9] came to 5000 nM; in data set [4] it was 99 nM. The Emax in data set [6] is 76%.

On to `C[C@@H]1CN(C(=O)[C@H]2CN(c3ccncn3)C[C@@H]2c2ccc(F)cc2F)C[C@H](C)[C@@]1(O)c1ccccc1`, for which the EC50 in data set [3] is over 9000 nM; in data set [5], 600 nM; in data set [10], over 14000 nM; in data set [7], 4 nM. Further, the Ki is over 10000 nM in data set [9] and 64 nM in data set [4]. Moreover, the Emax in data set [6] worked out at 75%.

As to `C[C@@H]1CN(C(=O)[C@H]2CN(C3CC3)C[C@@H]2c2ccc(F)cc2F)C[C@H](C)[C@@]1(O)c1ccccc1`, the logD in data set [2] was over 4. Moreover, the EC50 in data set [3] is over 4910 nM; in [5], over 33300 nM; in data set [7] it was 55 nM. Moreover, the inhibition constant (Ki) is over 9170 nM in [9] and 290 nM in data set [4]. This compound registered a microsomal CLint in data set [8] of 342 µL/min/mg.

With `C[C@@H]1CN(C(=O)[C@@H]2CN(C(C)(C)C)C[C@H]2c2ccc(F)cc2F)C[C@H](C)[C@@]1(O)c1ccc(Cl)cc1`, the Emax in data set [11] was 107%; in [6], 75%. This compound also came in with a logD in data set [2] of 3.9. Also, the EC50 was over 5880 nM in data set [3], 3680 nM in [5], 5190 nM in data set [10] and 30 nM in data set [7]. The Ki in data set [9] was over 10000 nM; in data set [4] it was 48 nM. The same compound had a microsomal CLint in data set [8] of 16 µL/min/mg.

Regarding `C[C@@H]1CN(C(=O)[C@@H]2CN(C(C)(C)C)C[C@H]2c2ccc(F)cc2F)C[C@H](C)[C@@]1(O)c1ccccn1`, the Emax in data set [11] came to 100%; in data set [1], 97%. In addition, the results for the EC50 in [3], in [5] and in [7] were 1170 nM, over 33300 nM and 46 nM, respectively. For the same compound, the Ki was determined as 5840 nM in data set [9] and 350 nM in data set [4].

In the case of `CCC[C@@]1(O)[C@H](C)CN(C(=O)[C@H]2CN(c3cccnn3)C[C@@H]2c2ccc(F)cc2F)C[C@@H]1C`, the Emax was found to be 104% in data set [1] and 79% in [6]. The logD in [2] was 2.8. The EC50 in data set [3] amounted to 3900 nM; in data set [5] it was 7480 nM; in data set [7], 21 nM. For the same compound, the Ki in [4] was determined as 56 nM. In [8], this compound showed a microsomal CLint of over 440 µL/min/mg.

Consider `C[C@@H]1CN(C(=O)[C@@H]2CNC[C@H]2c2ccc(F)cc2F)C[C@H](C)[C@@]1(O)c1ccccc1`, for which the EC50 in data set [3] was over 8740 nM; in data set [5] it was over 25200 nM; in [10] it was over 20000 nM; in data set [7], 462 nM. For the same compound, the Ki is 6650 nM in data set [9] and 264 nM in data set [4].

For the compound `C[C@@H]1CN(C(=O)[C@H]2CN(C3CCC3)C[C@@H]2c2ccc(F)cc2F)C[C@H](C)[C@@]1(O)c1ccccc1`, the Emax in data set [1] amounted to 79%; in [6], 81%. The EC50 is 350 nM in data set [3], 500 nM in [5] and 32 nM in [7]. Also, in [4], the Ki was determined as 62 nM.

On to `C[C@@H]1CN(C(=O)[C@@H]2CN(C(C)(C)C)C[C@H]2c2ccc(F)cc2F)C[C@H](C)[C@@]1(O)c1ccc(F)cc1F`, for which the Emax in data set [11] is 84%; in data set [1], 93%. The EC50 in data set [3] is 6570 nM; in data set [5] it was 10700 nM; in data set [7], 62 nM. Moreover, the Ki in data set [4] came out at 176 nM.

With `CC(C)N1C[C@@H](C(=O)N2C[C@@H](C)[C@](O)(c3ccccc3)[C@@H](C)C2)[C@H](c2ccc(F)cc2F)C1`, the Emax in data set [11] came out at 103%; in [1] it was 100%; in data set [6], 72%. In [2], the logD stood at 3.2. Also, the half-maximal effective concentration (EC50) worked out at 750 nM in data set [3], 11600 nM in data set [5], 3640 nM in [10] and 69 nM in data set [7]. Further, the Ki in [9] is over 7880 nM; in [4], 114 nM. Further, the microsomal CLint in data set [8] is 128 µL/min/mg.

Consider `C[C@@H]1CN(C(=O)[C@H]2CN(C3CCOCC3)C[C@@H]2c2ccc(F)cc2F)C[C@H](C)[C@@]1(O)c1ccccc1`, for which the logD in [2] turned out to be 3.1. Further, the EC50 is over 11900 nM in [3], over 14500 nM in data set [5], over 20000 nM in data set [10] and 18 nM in data set [7]. In addition, the results for the inhibition constant Ki in data set [9] and in data set [4] were over 5270 nM and 36 nM, respectively. Besides, the microsomal CLint in data set [8] was found to be 151 µL/min/mg.

Take `CCCCN1C[C@H](C(=O)N2C[C@@H](C)[C@](O)(c3ccccc3)[C@@H](C)C2)[C@@H](c2ccc(F)cc2F)C1`: the Emax in [11] and in [1] was 72% each time. Moreover, the EC50 in data set [3] was 1100 nM; in data set [5], over 5720 nM; in [10], 1430 nM; in data set [7] it was 105 nM. For the same compound, in data set [4], the Ki is 233 nM.

On to `CCCC[C@H](NC(C)=O)C(=O)N[C@H]1CC(=O)NCCCC[C@@H](C(N)=O)NC(=O)[C@H](Cc2c[nH]c3ccccc23)NC(=O)[C@H](CCCNC(=N)N)NC(=O)C(Cc2ccccc2)NC(=O)[C@H](CC2=NC=NC2)NC1=O` (single isomer, unassigned), for which the figures for the maximal response (Emax) in data set [11], in [1] and in [6] were 61%, 98% and 87%, respectively.

Consider `C[C@@H]1CN(C(=O)[C@H]2CN(c3cccnc3)C[C@@H]2c2ccc(F)cc2F)C[C@H](C)[C@@]1(O)c1ccccc1`, for which the EC50 in data set [3] is over 8220 nM; in data set [5], 65 nM; in data set [7] it was 5 nM. Moreover, the Ki in data set [9] stood at 5070 nM; in data set [4] it was 50 nM. Moreover, the Emax in data set [6] stood at 90%.

Source of the values: ChEMBL document CHEMBL1156187, “Discovery of a selective small-molecule melanocortin-4 receptor agonist with efficacy in a pilot study of sexual dysfunction in humans” (J Med Chem, 2010).
